# Read-outs that look alike come from different tables or passages of the source.
# Biological target: T1, recombinant human GluN1/GluN2A receptor (Homo sapiens, UniProt Q05586+Q12879)
# T1 construct: expressed in transfected cells; host or cells: HEK293, tetracycline-inducible expression
# Assay: Whole-cell patch clamp of mammalian cells (Syncropatch 384i), NMDA modulation
# Format: cell-based
# Method in brief: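 HEK293 cells with tetracycline-induced (50 ng/ml, 18–24 h) human GluN1/GluN2A, automated whole-cell recording at −80 mV, pH 7.4 external. After 120 s compound pre-incubation, compound applied with glutamate 1 μM/glycine 100 μM; fold peak increase (Icomp/Icontrol)−1 over 8 concentrations fitted four-parameter logistic.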
# [1] = Table C-2, HEK293 cells, human GluN1/GluN2A, glutamate 1 μM / glycine 100 μM, -80 mV, peak amplitude increase
# [2] = Table C-2, HEK293 cells, human GluN1/GluN2A, glutamate 1 μM / glycine 100 μM, -80 mV, peak amplitude increase, read-out: EC50
# T1 sequence (Q12879 23-1464, other chains not shown): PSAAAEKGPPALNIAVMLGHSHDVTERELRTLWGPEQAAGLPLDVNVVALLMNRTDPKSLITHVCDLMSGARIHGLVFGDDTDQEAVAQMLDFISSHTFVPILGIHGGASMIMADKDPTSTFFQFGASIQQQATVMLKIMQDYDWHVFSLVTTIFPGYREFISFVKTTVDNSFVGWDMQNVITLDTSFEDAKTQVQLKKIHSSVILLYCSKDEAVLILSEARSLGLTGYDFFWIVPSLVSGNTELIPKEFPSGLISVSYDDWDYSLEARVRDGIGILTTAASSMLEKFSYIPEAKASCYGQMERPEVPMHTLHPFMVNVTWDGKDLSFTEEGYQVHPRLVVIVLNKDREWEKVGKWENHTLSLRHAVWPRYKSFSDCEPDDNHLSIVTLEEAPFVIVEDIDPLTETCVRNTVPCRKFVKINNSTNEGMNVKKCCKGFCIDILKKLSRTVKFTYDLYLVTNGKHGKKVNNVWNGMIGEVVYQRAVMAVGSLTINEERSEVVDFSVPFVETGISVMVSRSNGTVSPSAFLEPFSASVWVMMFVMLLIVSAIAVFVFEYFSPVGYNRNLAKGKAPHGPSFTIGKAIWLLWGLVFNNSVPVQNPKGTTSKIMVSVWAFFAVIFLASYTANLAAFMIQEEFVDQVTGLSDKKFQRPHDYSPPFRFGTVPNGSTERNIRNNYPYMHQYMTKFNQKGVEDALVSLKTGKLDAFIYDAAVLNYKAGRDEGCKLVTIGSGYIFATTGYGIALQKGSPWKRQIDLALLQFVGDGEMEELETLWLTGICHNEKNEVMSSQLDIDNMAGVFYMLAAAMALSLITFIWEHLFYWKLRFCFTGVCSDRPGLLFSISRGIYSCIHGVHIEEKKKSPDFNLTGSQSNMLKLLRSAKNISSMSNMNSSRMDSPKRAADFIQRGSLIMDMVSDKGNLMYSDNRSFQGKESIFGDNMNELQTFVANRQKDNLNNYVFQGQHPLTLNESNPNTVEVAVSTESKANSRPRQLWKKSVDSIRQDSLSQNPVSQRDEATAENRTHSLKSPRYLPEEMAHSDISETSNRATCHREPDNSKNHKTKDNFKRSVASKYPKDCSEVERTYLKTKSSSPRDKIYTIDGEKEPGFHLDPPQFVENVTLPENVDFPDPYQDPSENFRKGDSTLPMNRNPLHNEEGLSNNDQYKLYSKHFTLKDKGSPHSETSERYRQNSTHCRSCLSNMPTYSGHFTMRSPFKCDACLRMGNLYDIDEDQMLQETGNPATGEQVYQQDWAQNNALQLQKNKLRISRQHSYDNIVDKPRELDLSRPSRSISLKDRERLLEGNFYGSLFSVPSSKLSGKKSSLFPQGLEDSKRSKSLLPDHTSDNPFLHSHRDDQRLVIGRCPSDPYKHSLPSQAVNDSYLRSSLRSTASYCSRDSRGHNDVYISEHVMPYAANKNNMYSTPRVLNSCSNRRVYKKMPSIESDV
Structure (SMILES),Emax [1],EC50 [2],EC50
"CC[C@]1(O)CC[C@@]2(C)[C@@H](CC[C@@H]3[C@@H]2CC[C@]2(C)[C@@H]([C@H](C)CC[C@@H](O)CC#N)CC[C@@H]32)C1 [Compound C-11, (3R,6R)-6-((3S,5S,8R,9S,10S,13R,14S,17R)-3-ethyl-3-hydroxy-10,13-dimethylhexadecahydro-1H-cyclopenta[a]phenanthren-17-yl)-3-hydroxyheptanenitrile]",100 to 200%,1 to 100 nM,–
CC[C@]1(O)CC[C@@]2(C)C(=CC[C@H]3[C@@H]4CC[C@H]([C@H](C)CC[C@@H](O)C(C)(C)C#N)[C@@]4(C)CC[C@@H]32)C1 [Compound C-12],> 200%,–,1 to 100 nM
"CC[C@]1(O)CC[C@@]2(C)C(=CC[C@H]3[C@@H]4CC[C@H]([C@H](C)CC[C@H](O)C(C)(C)C#N)[C@@]4(C)CC[C@@H]32)C1 [Compound C-13, (3S,6R)-6-((3S,8S,9S,10R,13R,14S,17R)-3-ethyl-3-hydroxy-10,13-dimethyl-2,3,4,7,8,9,10,11,12,13,14,15,16,17-tetradecahydro-1H-cyclopenta[a]phenanthren-17-yl)-3-hydroxy-2,2-dimethylheptanenitrile]",100 to 200%,1 to 100 nM,–
"CC[C@]1(O)CC[C@@]2(C)C(=CC[C@H]3[C@@H]4CC[C@H]([C@H](C)CC[C@H](O)C5(C#N)CCC5)[C@@]4(C)CC[C@@H]32)C1 [Compound C-18, 1-((1S,4R)-4-((3S,8S,9S,10R,13R,14S,17R)-3-ethyl-3-hydroxy-10,13-dimethyl-2,3,4,7,8,9,10,11,12,13,14,15,16,17-tetradecahydro-1H-cyclopenta[a]phenanthren-17-yl)-1-hydroxypentyl)cyclobutane-1-carbonitrile]",–,100 to 500 nM,–
"CC[C@]1(O)CC[C@@]2(C)C(=CC[C@H]3[C@@H]4CC[C@H]([C@H](C)CC[C@@H](O)C5(C#N)CCC5)[C@@]4(C)CC[C@@H]32)C1 [Compound C-19, 1-((1R,4R)-4-((3S,8S,9S,10R,13R,14S,17R)-3-ethyl-3-hydroxy-10,13-dimethyl-2,3,4,7,8,9,10,11,12,13,14,15,16,17-tetradecahydro-1H-cyclopenta[a]phenanthren-17-yl)-1-hydroxypentyl)cyclobutane-1-carbonitrile]",–,1 to 100 nM,–
"CC[C@]1(O)CC[C@@]2(C)C(=CC[C@H]3[C@@H]4CC[C@H]([C@H](C)CC[C@H](O)C5(C#N)CC5)[C@@]4(C)CC[C@@H]32)C1 [Compound C-20, 1-((1S,4R)-4-((3S,8S,9S,10R,13R,14S,17R)-3-ethyl-3-hydroxy-10,13-dimethyl-2,3,4,7,8,9,10,11,12,13,14,15,16,17-tetradecahydro-1H-cyclopenta[a]phenanthren-17-yl)-1-hydroxypentyl)cyclopropane-1-carbonitrile]",–,100 to 500 nM,–
"CC[C@]1(O)CC[C@@]2(C)C(=CC[C@H]3[C@@H]4CC[C@H]([C@H](C)CC[C@@H](O)C5(C#N)CC5)[C@@]4(C)CC[C@@H]32)C1 [Compound C-21, 1-((1R,4R)-4-((3S,8S,9S,10R,13R,14S,17R)-3-ethyl-3-hydroxy-10,13-dimethyl-2,3,4,7,8,9,10,11,12,13,14,15,16,17-tetradecahydro-1H-cyclopenta[a]phenanthren-17-yl)-1-hydroxypentyl)cyclopropane-1-carbonitrile]",–,1 to 100 nM,–
"C[C@H](CC[C@H](O)C1(C#N)CC1)[C@H]1CC[C@H]2[C@@H]3CC=C4C[C@@](C)(O)CC[C@]4(C)[C@H]3CC[C@]12C [Compound C-22, 1-((1S,4R)-1-hydroxy-4-((3S,8S,9S,10R,13R,14S,17R)-3-hydroxy-3,10,13-trimethyl-2,3,4,7,8,9,10,11,12,13,14,15,16,17-tetradecahydro-1H-cyclopenta[a]phenanthren-17-yl)pentyl)cyclopropane-1-carbonitrile]",< 100%,1 to 100 nM,–

# Source: patent publication US20240368214A1, “POSITIVE NMDA-MODULATING COMPOUNDS AND METHODS OF USE THEREOF” (SAGE THERAPEUTICS, INC., priority 2021, published 2024)
